In patent US6461997B1, “Triazole sulfones having herbicidal activity” (Monsanto Technology LLC, priority 1999, dated 2002):

System: STEME (common chickweed)
Test: Pre-emergence herbicidal activity, cool season
Assay type: in vivo, Stellaria media
Settings: lowest tested rate with 80% or greater inhibition; rates 300, 100, 30, 10 g/ha; about 14 days
In short: (§1)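 Seeds sown in sterilised fertilised topsoil received surface-applied compound in 50:50 acetone/water, typically at 300, 100, 30 and 10 g/ha, then greenhouse-grown at 30/21° C (warm-season species) or 18/13° C (cool-season species). Percent inhibition versus untreated plants was scored at about 14 days, giving GR80; an asterisk marks activity short of 80% at the top rate.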

SMILES	Pre-emergence activity GR80, STEME
CCN(CC)C(=O)n1cnc(S(=O)(=O)C(F)(F)SCc2ccccc2)n1 [Example 10]	300 g/ha
CCN(CC)C(=O)n1cnc(S(=O)(=O)C(F)(F)Cl)n1 [Example 3]	30 g/ha
CCN(CC)C(=O)n1cnc(S(=O)(=O)C(F)(F)SC)n1 [Example 9]	300 g/ha
CCN(CC)C(=O)n1cnc(S(=O)(=O)C(F)(F)C(=O)c2ccccc2)n1 [Example 6]	300 g/ha

System: DATST (jimsonweed)
Test: Pre-plant incorporated (PPI) herbicidal activity, warm season
Assay type: in vivo, Datura stramonium
Settings: PPI application, 10 g/ha
Description: In another set of tests, the pre-plant incorporated (PPI) activity of compounds of this invention was evaluated on the same species as for the pre-emergence tests described above. In the PPI tests the following procedure, designed to simulate PPI application, was used.
(§2) A pre-prepared topsoil mixture (described above) was placed in a pot and compacted to a depth of 1.0 to 1.25 cm from the top of the pot. Seeds of each of several monocotyledonous and dicotyledonous annual plant species were placed on top of the soil. A sufficient quantity of soil to cover the seeds and level fill the pot was weighed into an open container. A known amount of the test compound was dissolved or suspended in an organic solvent and applied by spraying to this cover soil. The cover soil was thoroughly mixed to distribute the test compound throughout the cover soil, and was then applied as a cover layer over the seeds. Untreated soil was used as a cover layer for control pots. After treatment the plants were placed in a greenhouse where they received 0.64 cm of overhead irrigation. All subsequent watering consisted of a light overhead mist and/or subirrigation as needed for germination and growth. Tables 9 and 10 below relate to warm season plant species which were placed after pre-emergence treatment in a greenhouse with a 30/21° C. day/night temperature regime. Tables 11 and 12 below relates to cool season plant species placed after pre-emergence treatment in a greenhouse or growth chamber with an 18/13° C. day/night temperature regime. Only the compounds of Examples 1, 6, 8, 11, 13 and 15-20 were included in PPI tests.
(§3) Approximately 14 days after planting and treating, the plants were observed and herbicidal efficacy recorded as percent inhibition by comparison with untreated plants.

SMILES	Percent inhibition DATST
CCN(CC)C(=O)n1cnc(S(=O)(=O)C(F)(F)SCc2ccccc2)n1 [Example 10]	0%

Same assay, conditions: PPI application, 30 g/ha

SMILES	Percent inhibition DATST
CCN(CC)C(=O)n1cnc(S(=O)(=O)C(F)(F)SCc2ccccc2)n1 [Example 10]	0%
CCN(CC)C(=O)n1cnc(S(=O)(=O)C(F)(F)Cl)n1 [Example 3]	0%
CCN(CC)C(=O)n1cnc(S(=O)(=O)C(F)(F)SC)n1 [Example 9]	0%

Same assay, conditions: PPI application, 100 g/ha

SMILES	Percent inhibition DATST
CCN(CC)C(=O)n1cnc(S(=O)(=O)C(F)(F)SCc2ccccc2)n1 [Example 10]	0%
CCN(CC)C(=O)n1cnc(S(=O)(=O)C(F)(F)Cl)n1 [Example 3]	30%
CCN(CC)C(=O)n1cnc(S(=O)(=O)C(F)(F)SC)n1 [Example 9]	0%

Same assay, conditions: PPI application, 300 g/ha

SMILES	Percent inhibition DATST
CCN(CC)C(=O)n1cnc(S(=O)(=O)C(F)(F)SCc2ccccc2)n1 [Example 10]	20%
CCN(CC)C(=O)n1cnc(S(=O)(=O)C(F)(F)Cl)n1 [Example 3]	70%
CCN(CC)C(=O)n1cnc(S(=O)(=O)C(F)(F)SC)n1 [Example 9]	80%

Same assay, conditions: PPI application, 900 g/ha

SMILES	Percent inhibition DATST
CCN(CC)C(=O)n1cnc(S(=O)(=O)C(F)(F)SCc2ccccc2)n1 [Example 10]	100%
CCN(CC)C(=O)n1cnc(S(=O)(=O)C(F)(F)Cl)n1 [Example 3]	100%
CCN(CC)C(=O)n1cnc(S(=O)(=O)C(F)(F)SC)n1 [Example 9]	100%

Same assay, conditions: pre-plant incorporated; GR80 = lowest tested rate with 80% or greater inhibition; approx. 14 days after treating; 30/21° C.

SMILES	PPI activity (GR80) DATST
CCN(CC)C(=O)n1cnc(S(=O)(=O)C(F)(F)C(=O)c2ccccc2)n1 [Example 6]	300 g/ha

System: AVEFA (wild oat)
Test: Post-emergence herbicidal activity, cool season
Assay type: in vivo, Avena fatua
Settings: abraded plants sprayed at 300, 100, 30 and 10 g/ha; about 14 days after treatment
Description: In another set of tests, the post-emergence activity of compounds of this invention was evaluated on the cool season species listed above. The following procedure was used.
A pre-prepared topsoil mixture (described above) was placed in a pot and compacted to a depth of 1.0 to 1.25 cm from the top of the pot. Seeds of each of several monocotyledonous and dicotyledonous annual plant species were placed on top of the soil. The seeds were covered with a mixture of 50% topsoil and 50% Rediearth™ in sufficient quantity to level-fill the pots. The pots were then placed on a greenhouse bench and subirrigated as needed.
When plants growing from the seeds had emerged and reached a suitable growth stage for post-emergence treatment, typically 9 to 14 days after planting, above-ground parts of the plants were subjected to a pre-treatment involving abrasion to create greater opportunity for foliar uptake of subsequently applied compounds. Abrasion was performed using garnet 200w particles applied with a Sears Craftsman hand-held sandblaster operated at approximately 850 kPa (50 psig) pressure.
A known amount of each test compound dissolved or suspended in an appropriate organic solvent was diluted with a 50:50 mix of acetone and water and applied to the plants by spraying with a standard spray nozzle in a spray volume of […] at a spray pressure of 511 kPa (30 psig). Only the compounds of Examples 1, 8-15 and 17-22 were included in post-emergence tests. Application rates for these compounds were 300, 100, 30 and 10 g/ha. Control plants were abraded but not sprayed.
After treatment the plants were placed in a greenhouse with an 18/13° C. day/night temperature regime and were subsequently watered as needed for growth. Approximately 14 days after treatment, the plants were observed and herbicidal efficacy recorded as percent inhibition by comparison with control plants. GR80 values were assigned for each compound as described above for the pre-emergence tests.

SMILES	Post-emergence activity GR80, AVEFA
CCN(CC)C(=O)n1cnc(S(=O)(=O)C(F)(F)SCc2ccccc2)n1 [Example 10]	[empty]
CCN(CC)C(=O)n1cnc(S(=O)(=O)C(F)(F)SC)n1 [Example 9]	[empty]

System: SINAR (wild mustard)
Test: Pre-emergence herbicidal activity, cool season
Assay type: in vivo, Sinapis arvensis
Settings: lowest tested rate with 80% or greater inhibition; rates 300, 100, 30, 10 g/ha; about 14 days
In short: as §1

SMILES	Pre-emergence activity GR80, SINAR
CCN(CC)C(=O)n1cnc(S(=O)(=O)C(F)(F)SCc2ccccc2)n1 [Example 10]	100 g/ha
CCN(CC)C(=O)n1cnc(S(=O)(=O)C(F)(F)Cl)n1 [Example 3]	300 g/ha
CCN(CC)C(=O)n1cnc(S(=O)(=O)C(F)(F)SC)n1 [Example 9]	300 g/ha
CCN(CC)C(=O)n1cnc(S(=O)(=O)C(F)(F)C(=O)c2ccccc2)n1 [Example 6]	300 g/ha

System: rice (ORYSA)
Test: Selectivity test, PPI, warm season crop
Assay type: in vivo, Oryza sativa
Settings: PPI application, 10 g/ha
Description: as §2, §3
Additional pre-emergence and PPI tests were conducted by the procedures described above, on warm and cool season weed species in the presence of crop species, to assess herbicidal selectivity. Crop species included in warm season tests were corn (Zea mays, ZEAMX), rice (Oryza sativa, ORYSA) and soybean (Glycine max, GLYMX). Crop species included in cool season tests were wheat (Triticum aestivum, TRZAW), barley (Hordeunm vulgare, HORVX) and oilseed rape (Brassica napus, BRSNS).
Tables 15 and 16 relate to pre-emergence and PPI tests respectively on warm season species. Table 17 relates to pre-emergence tests on cool season species.

SMILES	Percent inhibition ORYSA
CCN(CC)C(=O)n1cnc(S(=O)(=O)C(F)(F)SCc2ccccc2)n1 [Example 10]	0%

Same assay, conditions: PPI application, 30 g/ha

SMILES	Percent inhibition ORYSA
CCN(CC)C(=O)n1cnc(S(=O)(=O)C(F)(F)SCc2ccccc2)n1 [Example 10]	0%
CCN(CC)C(=O)n1cnc(S(=O)(=O)C(F)(F)Cl)n1 [Example 3]	0%
CCN(CC)C(=O)n1cnc(S(=O)(=O)C(F)(F)SC)n1 [Example 9]	0%

Same assay, conditions: PPI application, 100 g/ha

SMILES	Percent inhibition ORYSA
CCN(CC)C(=O)n1cnc(S(=O)(=O)C(F)(F)SCc2ccccc2)n1 [Example 10]	0%
CCN(CC)C(=O)n1cnc(S(=O)(=O)C(F)(F)Cl)n1 [Example 3]	0%
CCN(CC)C(=O)n1cnc(S(=O)(=O)C(F)(F)SC)n1 [Example 9]	0%

Same assay, conditions: PPI application, 300 g/ha

SMILES	Percent inhibition ORYSA
CCN(CC)C(=O)n1cnc(S(=O)(=O)C(F)(F)SCc2ccccc2)n1 [Example 10]	30%
CCN(CC)C(=O)n1cnc(S(=O)(=O)C(F)(F)Cl)n1 [Example 3]	20%
CCN(CC)C(=O)n1cnc(S(=O)(=O)C(F)(F)SC)n1 [Example 9]	70%

Same assay, conditions: PPI application, 900 g/ha

SMILES	Percent inhibition ORYSA
CCN(CC)C(=O)n1cnc(S(=O)(=O)C(F)(F)SCc2ccccc2)n1 [Example 10]	0%
CCN(CC)C(=O)n1cnc(S(=O)(=O)C(F)(F)Cl)n1 [Example 3]	70%
CCN(CC)C(=O)n1cnc(S(=O)(=O)C(F)(F)SC)n1 [Example 9]	95%

System: CHEAL (common lambsquarters)
Test: Pre-emergence herbicidal activity, warm season
Assay type: in vivo, Chenopodium album
Settings: GR80 = lowest tested rate (300, 100, 30, 10 g/ha) with 80% or greater inhibition; approx. 14 days after treating; 30/21° C.
In short: as §1

SMILES	Pre-emergence activity (GR80) CHEAL
CCN(CC)C(=O)n1cnc(S(=O)(=O)C(F)(F)SCc2ccccc2)n1 [Example 10]	300 g/ha
CCN(CC)C(=O)n1cnc(S(=O)(=O)C(F)(F)Cl)n1 [Example 3]	100 g/ha
CCN(CC)C(=O)n1cnc(S(=O)(=O)C(F)(F)SC)n1 [Example 9]	300 g/ha
CCN(CC)C(=O)n1cnc(S(=O)(=O)C(F)(F)C(=O)c2ccccc2)n1 [Example 6]	300 g/ha

System: ECHCG (barnyardgrass)
Test: Pre-emergence herbicidal activity, warm season
Assay type: in vivo, Echinochloa crus-galli
Settings: GR80 = lowest tested rate (300, 100, 30, 10 g/ha) with 80% or greater inhibition; approx. 14 days after treating; 30/21° C.
In short: as §1

SMILES	Pre-emergence activity (GR80) ECHCG
CCN(CC)C(=O)n1cnc(S(=O)(=O)C(F)(F)SCc2ccccc2)n1 [Example 10]	300 g/ha
CCN(CC)C(=O)n1cnc(S(=O)(=O)C(F)(F)Cl)n1 [Example 3]	30 g/ha
CCN(CC)C(=O)n1cnc(S(=O)(=O)C(F)(F)SC)n1 [Example 9]	300 g/ha
CCN(CC)C(=O)n1cnc(S(=O)(=O)C(F)(F)C(=O)c2ccccc2)n1 [Example 6]	* (activity observed, at least at highest rate, but <80% inhibition)
